The test system of series [1] is E. multilocularis metacestode vesicles. Nature of the series: Phosphoglucose isomerase (PGI) release assay (damage-marker release) on metacestode vesicles. The format is cell-based, Echinococcus multilocularis. As to conditions: 10 μM; for PGI d5 (relative PGI release): 5 days; for PGI d12 (relative PGI release): 12 days.
The test system is the same in series [2]. Briefly: Metacestode vesicle viability assay (ATP, CellTiter-Glo). The format is cell-based, Echinococcus multilocularis. The protocol: Viability was assessed after 12 days using the same metacestode vesicles as for the PGI release assay. Triton X-100 was added to each well to a final concentration of 0.1 %. Subsequently the metacestode vesicles were broken mechanically and 50 μL of the supernatant was mixed with 50 μL of CellTiter-Glo® buffer (Promega, Dübendorf, Switzerland). Measurements were performed on a HIDEX Sense microplate reader.
On the technique in general: Cellular ATP, detected with luciferase, serves as a proxy for viable cell number.

The mark [3] stands for this setting: overview screen, singlets, relative to 0.1 % Triton X-100, DMSO subtracted.
[4] abbreviates: overview screen, 10 μM, singlets, 12 days, relative to DMSO control.
The mark [5] stands for this setting: confirmation screen, triplicates, mean.
The mark [6] stands for this setting: confirmation screen, 10 μM, triplicates, mean, 12 days.

As for `Cn1cncc1[C@@](N)(c1ccc(Cl)cc1)c1ccc2c(c1)c(-c1cccc(Cl)c1)cc(=O)n2C` [MMV658803], in series [1] (setting [3]), the “PGI d5 (relative PGI release)” value was determined as 0.7883% and the “PGI d12 (relative PGI release)” value is -2.529%. The “Viability d12 (relative viability)” value in series [2] (setting [4]) came to 92.252%.
In the case of `Cc1cc(-c2ccccc2)c(C(=O)C(=O)Nc2ccc(N3CCN(c4ncc(F)cn4)CC3)cc2)n1C` [MMV1782354], in series [1] (setting [3]), the “PGI d5 (relative PGI release)” value is on record as 1.821% and the “PGI d12 (relative PGI release)” value is listed as -11.1929%. The “Viability d12 (relative viability)” value in series [2] (setting [4]) stood at 36.0707%.
The matching figures for `COc1cc(Cc2cnc(N)nc2N)c2c(c1OC)OC(C1CC1)C=C2` (stereo not drawn) [MMV1613563]: -0.539%, -1.956% and 145.38%.
The matching figures for `O=c1cc(OCc2ccccc2)ccn1Cc1ccccc1` [MMV1579775]: -1.928%, -10.779% and 63.3743%.
For the molecule `O=C(CCCC(F)(F)F)N1CCC(c2nc(-c3nccs3)no2)CC1` [MMV1582491], the “PGI d5 (relative PGI release)” value is reported as -0.08% in series [1] (setting [5]) and 0.6914% in series [1] (setting [3]). Also, the results for the “PGI d12 (relative PGI release)” value in series [1] (setting [5]) and in series [1] (setting [3]) were -0.04% and 59.8611%, respectively. Besides, the “Viability d12 (relative viability)” value is 57.90% in series [2] (setting [6]) and 18.4528% in series [2] (setting [4]).
As to `O=C(c1ccccc1)N1CCN(c2ccccc2NC(=O)C(Cl)(Cl)Cl)CC1` [MMV001014], in series [1] (setting [3]), the “PGI d5 (relative PGI release)” value is reported as 0.3132% and the “PGI d12 (relative PGI release)” value is recorded as -4.23%. In addition, in series [2] (setting [4]), the “Viability d12 (relative viability)” value was 104.308%.
`CSC[C@H]1CN(Cc2c[nH]c3c(N)ncnc23)C[C@@H]1O` [MMV1578565]: in series [1] (setting [3]), the “PGI d5 (relative PGI release)” value is recorded as -1.805% and the “PGI d12 (relative PGI release)” value is -12.574%. Further, the “Viability d12 (relative viability)” value in series [2] (setting [4]) worked out at 59.0324%.
As for `O=C(O)CSc1cc(NS(=O)(=O)c2cccc3cccnc23)c2ccccc2c1O` [MMV218827], in series [1] (setting [3]), the “PGI d5 (relative PGI release)” value was -0.1296% and the “PGI d12 (relative PGI release)” value is given as 0.539%. Also, in series [2] (setting [4]), the “Viability d12 (relative viability)” value amounted to 73.5027%.
The matching figures for `O=C(O)C(Cc1c[nH]c2ccccc12)N1C(=O)c2ccccc2C1=O` (stereo not drawn) [MMV452821]: 1.873%, 0.986% and 132.36%.
As for `COc1ccc(C[C@@H](C)[C@@H](C)Cc2ccc(OC)c(OC)c2)cc1OC` [MMV1581036], in series [1] (setting [3]), the “PGI d5 (relative PGI release)” value is given as 0.565% and the “PGI d12 (relative PGI release)” value was found to be 2.335%. Moreover, in series [2] (setting [4]), the “Viability d12 (relative viability)” value turned out to be 132.486%.
Consider `Cc1c(CN(C)C(=O)/C=C/c2cnc3c(c2)C(C)(C)C(=O)N3)oc2ccccc12` [MMV1579788], for which the “PGI d5 (relative PGI release)” value in series [1] (setting [5]) is -0.0109%; in series [1] (setting [3]) it was 17.9293%. Moreover, the “PGI d12 (relative PGI release)” value in series [1] (setting [5]) was -0.0852%; in series [1] (setting [3]), 63.9713%. For the same molecule, the “Viability d12 (relative viability)” value in series [2] (setting [6]) is on record as 76.12%; in series [2] (setting [4]), 5.845%.
Take `CCCCc1ccc(-c2nc(C)c(C(=O)OC)s2)cc1` [MMV1634392]: in series [1] (setting [3]), the “PGI d5 (relative PGI release)” value is recorded as 0.3728% and the “PGI d12 (relative PGI release)” value was 0.05977%. For the same molecule, the “Viability d12 (relative viability)” value in series [2] (setting [4]) was found to be 152.475%.
The matching figures for `Cc1cc(C)n2nc(C(=O)NS(=O)(=O)c3c(C)cccc3OC(F)(F)F)nc2n1` [MMV1782402]: -1.59%, 1.998% and 179.119%.
Regarding `CCCCSc1nc(N)c2[nH]c(=O)c(=O)n(Cc3ccccc3)c2n1` [MMV1579783], in series [1] (setting [3]), the “PGI d5 (relative PGI release)” value is reported as 3.365% and the “PGI d12 (relative PGI release)” value was -15.2556%. Also, in series [2] (setting [4]), the “Viability d12 (relative viability)” value stood at 63.4578%.
For `COc1c(F)c(F)cc2c(=O)c(C(=O)O)cn(C3CC3)c12` [MMV1480967], in series [1] (setting [3]), the “PGI d5 (relative PGI release)” value was 0.2423% and the “PGI d12 (relative PGI release)” value is listed as -3.0894%. Moreover, the “Viability d12 (relative viability)” value in series [2] (setting [4]) is listed as 115.193%.
The matching figures for `NC[C@H]1OB(O)c2c(OCCCO)cccc21` [MMV1578566]: 0.6057%, -3.009% and 7.765%.
The matching figures for `CC1=C(/C=C/C(C)=C/C=C/C(C)=C/C(=O)Nc2ccc(O)cc2)C(C)(C)CCC1` [MMV001793]: 0.1304%, -19.3598% and 54.0144%.
The matching figures for `CN1C(=O)C(c2ccccc2)C(=O)N(c2ccccc2)c2cc(C(F)(F)F)ccc21` (stereo not drawn) [MMV1782208]: 0.993%, -0.2102% and 97.8548%.
For `CCC(C)(C)c1ccc(CC(C)CN2C[C@@H](C)O[C@@H](C)C2)cc1.Cl` (stereo partly drawn) [MMV1634358], in series [1] (setting [3]), the “PGI d5 (relative PGI release)” value is listed as 0.7921% and the “PGI d12 (relative PGI release)” value is given as -20.4097%. Also, the “Viability d12 (relative viability)” value in series [2] (setting [4]) worked out at 23.2957%.
The matching figures for `Nc1nc(-c2ccccc2)nc2[nH]nc(Nc3ccc(C(F)(F)F)cc3)c12` [MMV1633968]: 0.2239%, 0.02121% and 133.404%.
For the molecule `COc1ccc2c(c1)cc(CNC(=O)c1cc3ccccc3o1)n2CC(=O)O` [MMV1581553], in series [1] (setting [3]), the “PGI d5 (relative PGI release)” value is reported as -2.902% and the “PGI d12 (relative PGI release)” value was -25.8097%. Besides, in series [2] (setting [4]), the “Viability d12 (relative viability)” value turned out to be 73.1434%.
Regarding `Cc1cc(CCOc2c(C)cc(-c3nnn(C)n3)cc2C)on1` [MMV1782349], in series [1] (setting [3]), the “PGI d5 (relative PGI release)” value is listed as -0.7312% and the “PGI d12 (relative PGI release)” value was -0.8271%. Further, the “Viability d12 (relative viability)” value in series [2] (setting [4]) was 107.625%.
The matching figures for `CC(C)(C)c1cccc(-c2nc3cc(C(=N)N)ccc3[nH]2)c1O` [MMV1581548]: -1.312%, -24.7037% and 76.2328%.
As to `Cc1onc(-c2ccccc2Cl)c1C(=O)N[C@@H]1C(=O)N2[C@@H]1SC(C)(C)[C@@H]2C(=O)O` [MMV002740], in series [1] (setting [3]), the “PGI d5 (relative PGI release)” value is -1.463% and the “PGI d12 (relative PGI release)” value is -24.5158%. In series [2] (10 µM), the “Viability d12 (relative viability)” value came out at 55.1081%.
With `COCCn1cnc2c(O)nc(Nc3ccccc3)nc21` [MMV1782103], in series [1] (setting [3]), the “PGI d5 (relative PGI release)” value is listed as -0.2041% and the “PGI d12 (relative PGI release)” value is on record as -2.0996%. The “Viability d12 (relative viability)” value in series [2] (setting [4]) was 66.6969%.
As to `CC#C[C@]1(O)CC[C@H]2[C@@H]3CCC4=CC(=O)CCC4=C3[C@@H](c3ccc(N(C)C)cc3)C[C@@]21C` [MMV003297], in series [1] (setting [3]), the “PGI d5 (relative PGI release)” value is -0.9731% and the “PGI d12 (relative PGI release)” value was -0.6398%. In series [2] (10 µM), the “Viability d12 (relative viability)” value is 92.6641%.
With `CC(Cc1ccccc1)C(=O)Nc1ccc(Cl)cc1C(=O)O` (stereo not drawn) [MMV1579781], in series [1] (setting [3]), the “PGI d5 (relative PGI release)” value is listed as -1.72% and the “PGI d12 (relative PGI release)” value is listed as 1.6268%. Further, the “Viability d12 (relative viability)” value in series [2] (setting [4]) was found to be 82.6324%.
The matching figures for `Fc1ccc2c(/C=C/c3cccnc3)c[nH]c2c1` [MMV1578889]: -2.006%, 1.559% and 96.8566%.
The matching figures for `CC(C)(C)NC(=O)N[C@H](C(=O)N1C[C@H]2[C@@H]([C@H]1C(=O)NC(CC1CCC1)C(=O)C(N)=O)C2(C)C)C(C)(C)C` (stereo partly drawn) [MMV1580497]: 0.3266%, 69.2218% and 40.5469%.
The matching figures for `CC(=O)NC[C@H]1CN(c2ccc(N3CCSCC3)c(F)c2)C(=O)O1` [MMV688756]: -1.412%, -2.526% and 97.3563%.
Turning to `COc1cc(NCc2ccc3nc(N)nc(N)c3c2C)cc(OC)c1OC` [MMV1580173], in series [1] (setting [3]), the “PGI d5 (relative PGI release)” value was -1.642% and the “PGI d12 (relative PGI release)” value is recorded as -23.9013%. For the same molecule, the “Viability d12 (relative viability)” value in series [2] (10 µM) turned out to be 66.8811%.
`Cc1ccn2c(C(=O)NCc3ccccc3)c(C)nc2c1` [MMV1579847]: in series [1] (setting [3]), the “PGI d5 (relative PGI release)” value is recorded as -1.164% and the “PGI d12 (relative PGI release)” value is given as -2.526%. In addition, the “Viability d12 (relative viability)” value in series [2] (setting [4]) is on record as 87.8278%.
The matching figures for `CCOC(=O)Nc1cc(NC(C)CC(C)CN(CC)CC)c2nc(-c3ccccc3)c(-c3ccccc3)nc2n1` (stereo not drawn) [MMV1633967]: -2.798%, -20.9085% and 104.121%.
As for `COc1ccc2sc3c(c2c1)NC(C)CNC3=O` (stereo not drawn) [MMV1782115], in series [1] (setting [3]), the “PGI d5 (relative PGI release)” value is -1.121% and the “PGI d12 (relative PGI release)” value is 1.77%. In series [2] (setting [4]), the “Viability d12 (relative viability)” value stood at 114.23%.
Consider `Oc1c(C(Nc2ccccn2)c2ccccc2)ccc2cccnc12` (stereo not drawn) [MMV565773], for which, in series [1] (setting [3]), the “PGI d5 (relative PGI release)” value is -0.6323% and the “PGI d12 (relative PGI release)” value was -6.242%. The “Viability d12 (relative viability)” value in series [2] (setting [4]) amounted to 113.31%.
The matching figures for `CC(=O)N1CCN(c2ccc(OC[C@@H]3CO[C@@](Cn4ccnc4)(c4ccc(Cl)cc4Cl)O3)cc2)CC1` [MMV637533]: 1.26%, -24.3929% and 224.858%.

The record behind these values is paper PMC12410356 (International Journal for Parasitology: Drugs and Drug …, 2025).
